In experiment [1] the target is GST-tagged truncated LRRK2 (Homo sapiens (Human), UniProt Q5S007). Description: LRRK2 Lantha Screen kinase assay. It is filed as biochemical. As to conditions: geometric mean of 2-5 determinations unless otherwise indicated (a: >=6 determinations; b: single determination); read-out: LRRK2 WT IC50.
Experimental: LRRK2 kinase activity was measured using Lantha Screen technology from Invitrogen. GST-tagged truncated LRRK2 from Invitrogen (Cat # PV4874) was incubated with a fluorescein-labeled peptide substrate based upon ezrin/radixin/moesin (ERM), also known as LRRKtide (Invitrogen cat #PR8976A), in the presence of a dose response of compound. Upon completion, the assay was stopped and detected with a terbium labeled anti-phospho-ERM antibody (Invitrogen, cat #PR8975A). […] Aliquots (3.5 μL) of the 100% DMSO dose response were mixed with 46.5 μL water then 1 μL of this mixture was added to the 3 μL substrate mix in the 384-well plate. The kinase reaction was started with 3 μL of a working solution of LRRK2 enzyme at a concentration of 4 μg/mL. […] The reaction was allowed to progress at room temperature for two hours and then stopped with the addition of 7 μL of detection buffer (20 mM Tris pH 7.6, 0.01% NP-40, 0.02% NaN3, 6 mM EDTA with 2 nM terbium labeled anti-phospho-ERM).
In experiment [2] the target is mutant G2019S LRRK2 (Homo sapiens (Human), UniProt Q5S007, G2019S). In words: LRRK2 Lantha Screen kinase assay, mutant enzyme. It is filed as biochemical. As to conditions: geometric mean of 2-5 determinations unless otherwise indicated (a: >=6 determinations; b: single determination).
Sequence of mutant G2019S LRRK2 (Q5S007 970-2527 G2019S): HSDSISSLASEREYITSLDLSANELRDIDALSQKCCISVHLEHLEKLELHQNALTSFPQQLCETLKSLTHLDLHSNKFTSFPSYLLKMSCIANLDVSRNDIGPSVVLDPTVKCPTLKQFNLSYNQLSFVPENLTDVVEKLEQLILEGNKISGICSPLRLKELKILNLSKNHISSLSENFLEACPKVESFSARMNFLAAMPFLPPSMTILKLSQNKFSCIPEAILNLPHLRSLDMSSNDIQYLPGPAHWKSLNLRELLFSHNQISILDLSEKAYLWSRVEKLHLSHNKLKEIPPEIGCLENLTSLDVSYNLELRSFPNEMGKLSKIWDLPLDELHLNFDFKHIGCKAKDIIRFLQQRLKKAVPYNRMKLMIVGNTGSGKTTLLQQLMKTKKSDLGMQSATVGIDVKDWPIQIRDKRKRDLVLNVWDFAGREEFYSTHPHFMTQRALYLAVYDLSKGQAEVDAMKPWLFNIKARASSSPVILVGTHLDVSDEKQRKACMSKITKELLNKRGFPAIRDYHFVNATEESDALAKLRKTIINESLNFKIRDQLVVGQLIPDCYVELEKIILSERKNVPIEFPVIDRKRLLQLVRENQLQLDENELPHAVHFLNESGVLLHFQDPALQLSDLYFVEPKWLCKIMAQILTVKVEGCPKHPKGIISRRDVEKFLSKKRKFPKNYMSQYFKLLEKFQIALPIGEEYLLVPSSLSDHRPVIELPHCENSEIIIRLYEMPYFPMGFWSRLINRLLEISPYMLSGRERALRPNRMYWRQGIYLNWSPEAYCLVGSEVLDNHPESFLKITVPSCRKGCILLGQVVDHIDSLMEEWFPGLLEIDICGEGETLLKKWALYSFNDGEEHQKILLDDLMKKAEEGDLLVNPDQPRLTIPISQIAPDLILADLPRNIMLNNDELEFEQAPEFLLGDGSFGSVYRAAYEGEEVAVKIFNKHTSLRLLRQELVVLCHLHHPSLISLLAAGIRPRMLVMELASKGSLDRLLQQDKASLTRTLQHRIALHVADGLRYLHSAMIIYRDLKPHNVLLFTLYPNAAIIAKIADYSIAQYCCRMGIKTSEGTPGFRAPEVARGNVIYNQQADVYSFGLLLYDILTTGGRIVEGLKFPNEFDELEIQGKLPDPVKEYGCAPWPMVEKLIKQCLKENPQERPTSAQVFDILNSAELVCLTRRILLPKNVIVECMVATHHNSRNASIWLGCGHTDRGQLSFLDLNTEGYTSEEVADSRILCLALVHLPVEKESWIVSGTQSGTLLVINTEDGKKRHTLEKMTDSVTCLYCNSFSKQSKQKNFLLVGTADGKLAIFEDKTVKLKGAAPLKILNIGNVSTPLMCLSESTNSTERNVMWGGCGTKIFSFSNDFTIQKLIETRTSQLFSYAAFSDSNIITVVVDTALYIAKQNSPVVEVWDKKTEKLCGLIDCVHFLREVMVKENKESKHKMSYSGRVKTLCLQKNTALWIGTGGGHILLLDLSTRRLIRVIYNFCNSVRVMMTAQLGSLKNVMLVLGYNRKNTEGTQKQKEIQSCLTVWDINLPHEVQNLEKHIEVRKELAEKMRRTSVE

Sequence of GST-tagged truncated LRRK2 (Q5S007 970-2527): as the sequence (Q5S007 970-2527 G2019S) above, with S1050G counted along it

On to `COc1ccc(C#N)cc1-c1c[nH]c2ncnc(N3C[C@H](C)C[C@H](C)C3)c12` [Example 65, 3-[4-(3,5-cis-dimethylpiperidin-1-yl)-7H-pyrrolo[2,3-d]pyrimidin-5-yl]-4-methoxybenzonitrile], for which the IC50 in experiment [1] worked out at 85 nM; in experiment [2], 176 nM.
For the compound `COc1ccc(C#N)cc1-c1c[nH]c2ncnc(N3CCC[C@H](C)C3)c12` [Example 66, 4-methoxy-3-{4-[(3S)-3-methylpiperidin-1-yl]-7H-pyrrolo[2,3-d]pyrimidin-5-yl}benzonitrile], the IC50 came out at 21 nM in experiment [1] and 51 nM in experiment [2].
Regarding `C[C@H]1CCCN(c2ncnc3[nH]cc(-c4cccc(C#N)c4F)c23)C1` [Example 67, 2-fluoro-3-{4-[(3S)-3-methylpiperidin-1-yl]-7H-pyrrolo[2,3-d]pyrimidin-5-yl}benzonitrile], the half-inhibitory concentration (IC50) in experiment [1] stood at 11 nM; in experiment [2], 35 nM.
As to `CN(C)c1ncnc2[nH]cc(-c3ccccc3)c12` [Example 68, N,N-dimethyl-5-phenyl-7H-pyrrolo[2,3-d]pyrimidin-4-amine], the 50% inhibitory concentration (IC50) in experiment [1] was 63 nM; in experiment [2], 39 nM.
As for `CN(C)c1ncnc2[nH]cc(-c3cccc(C#N)c3F)c12` [Example 69, 3-[4-(dimethylamino)-7H-pyrrolo[2,3-d]pyrimidin-5-yl]-2-fluorobenzonitrile], the IC50 turned out to be 6 nM in experiment [1] and 17 nM in experiment [2].
Consider `N#Cc1cccc(-c2c[nH]c3ncnc(N4CCCC4)c23)c1` [Example 70, 3-[4-(pyrrolidin-1-yl)-7H-pyrrolo[2,3-d]pyrimidin-5-yl]benzonitrile], for which the IC50 is 8 nM in experiment [1] and 64 nM in experiment [2].
With `CN(C)c1ncnc2[nH]cc(-c3cc(C#N)ccc3F)c12` [Example 72, 3-[4-(dimethylamino)-7H-pyrrolo[2,3-d]pyrimidin-5-yl]-4-fluorobenzonitrile], the half-maximal inhibitory concentration (IC50) in experiment [1] is 37 nM; in experiment [2], 190 nM.
The like results for `CCN(CC)c1ncnc2[nH]cc(-c3cccc(C#N)c3)c12` [Example 73, 3-[4-(diethylamino)-7H-pyrrolo[2,3-d]pyrimidin-5-yl]benzonitrile] were, in that order, 13 nM and 119 nM.
For `CN(C)c1ncnc2[nH]cc(-c3cc(F)cc(C#N)c3)c12` [Example 75, 3-[4-(dimethylamino)-7H-pyrrolo[2,3-d]pyrimidin-5-yl]-5-fluorobenzonitrile], the half-inhibitory concentration (IC50) in experiment [1] came to 53 nM; in experiment [2], 396 nM.
On the same counts, the results for `N#Cc1cccc(-c2c[nH]c3ncnc(N4CCOCC4)c23)c1F` [Example 78, 2-fluoro-3-[4-(morpholin-4-yl)-7H-pyrrolo[2,3-d]pyrimidin-5-yl]benzonitrile] are 2 nM and 7 nM.
Regarding `C[C@@H]1CN(c2ncnc3[nH]cc(-c4cccc(C#N)c4)c23)CCO1` [Example 79, 3-{4-[(2R)-2-methylmorpholin-4-yl]-7H-pyrrolo[2,3-d]pyrimidin-5-yl}benzonitrile], the concentration for half-maximal inhibition (IC50) in experiment [1] came out at 18 nM; in experiment [2] it was 69 nM.
As for `N#Cc1ccc(F)c(-c2c[nH]c3ncnc(N4CCOCC4)c23)c1` [Example 80, 4-fluoro-3-[4-(morpholin-4-yl)-7H-pyrrolo[2,3-d]pyrimidin-5-yl]benzonitrile], the half-maximal inhibitory concentration (IC50) in experiment [1] is 49 nM; in experiment [2], 393 nM.
In the case of `Cn1cc(-c2c[nH]c3ncnc(N4CCC(F)CC4)c23)cn1` [Example 81, 4-(4-fluoropiperidin-1-yl)-5-(1-methyl-1H-pyrazol-4-yl)-7H-pyrrolo[2,3-d]pyrimidine], the results for the half-maximal inhibitory concentration (IC50) in experiment [1] and in experiment [2] were 36 nM and 50 nM, respectively.
As to `N#Cc1ccccc1-c1c[nH]c2ncnc(N3CCOCC3)c12` [Example 82, 2-[4-(morpholin-4-yl)-7H-pyrrolo[2,3-d]pyrimidin-5-yl]benzonitrile], the half-maximal inhibitory concentration (IC50) came out at 95 nM in experiment [1] and 148 nM in experiment [2].
On to `Clc1cccc(-c2c[nH]c3ncnc(N4CCOCC4)c23)c1` [Example 83, 5-(3-chlorophenyl)-4-(morpholin-4-yl)-7H-pyrrolo[2,3-d]pyrimidine], for which the values for the 50% inhibitory concentration (IC50) in experiment [1] and in experiment [2] were 8 nM and 13 nM, respectively.
On the same counts, the results for `Fc1ccccc1-c1c[nH]c2ncnc(N3CCOCC3)c12` [Example 84, 5-(2-fluorophenyl)-4-(morpholin-4-yl)-7H-pyrrolo[2,3-d]pyrimidine] are 22 nM and 30 nM.
Regarding `COc1cc(F)cc(-c2c[nH]c3ncnc(N4CCOCC4)c23)c1` [Example 85, 5-(3-fluoro-5-methoxyphenyl)-4-(morpholin-4-yl)-7H-pyrrolo[2,3-d]pyrimidine], the half-inhibitory concentration (IC50) in experiment [1] is 9 nM; in experiment [2] it was 20 nM.
For `Fc1ccc(F)c(-c2c[nH]c3ncnc(N4CCOCC4)c23)c1` [Example 86, 5-(2,5-difluorophenyl)-4-(morpholin-4-yl)-7H-pyrrolo[2,3-d]pyrimidine], the IC50 in experiment [1] worked out at 76 nM; in experiment [2], 145 nM.
The like results for `Fc1cccc(-c2c[nH]c3ncnc(N4CCOCC4)c23)c1F` [Example 87, 5-(2,3-difluorophenyl)-4-(morpholin-4-yl)-7H-pyrrolo[2,3-d]pyrimidine] were, in that order, 12 nM and 24 nM.
For the compound `Fc1ccc(Cl)cc1-c1c[nH]c2ncnc(N3CCOCC3)c12` [Example 88, 5-(5-chloro-2-fluorophenyl)-4-(morpholin-4-yl)-7H-pyrrolo[2,3-d]pyrimidine], the values for the IC50 in experiment [1] and in experiment [2] were 9 nM and 12 nM, respectively.
Turning to `OCc1cccc(-c2c[nH]c3ncnc(N4CCOCC4)c23)c1F` [Example 89, {2-fluoro-3-[4-(morpholin-4-yl)-7H-pyrrolo[2,3-d]pyrimidin-5-yl]phenyl}methanol], the IC50 came to 32 nM in experiment [1] and 75 nM in experiment [2].
The like results for `Fc1ccc(-c2c[nH]c3ncnc(N4CCOCC4)c23)c(F)c1` [Example 90, 5-(2,4-difluorophenyl)-4-(morpholin-4-yl)-7H-pyrrolo[2,3-d]pyrimidine] were, in that order, 41 nM and 62 nM.
As to `Fc1cccc(-c2c[nH]c3ncnc(N4CCOCC4)c23)c1` [Example 91, 5-(3-fluorophenyl)-4-(morpholin-4-yl)-7H-pyrrolo[2,3-d]pyrimidine], the IC50 came to 9 nM in experiment [1] and 21 nM in experiment [2].
`Fc1cc(F)cc(-c2c[nH]c3ncnc(N4CCOCC4)c23)c1` [Example 92, 5-(3,5-difluorophenyl)-4-(morpholin-4-yl)-7H-pyrrolo[2,3-d]pyrimidine]: the IC50 in experiment [1] came to 92 nM; in experiment [2], 238 nM.
In the case of `c1ccc(-c2c[nH]c3ncnc(N4CCOCC4)c23)cc1` [Example 93, 4-(morpholin-4-yl)-5-phenyl-7H-pyrrolo[2,3-d]pyrimidine], the IC50 in experiment [1] was determined as 9 nM; in experiment [2], 14 nM.
For the compound `COc1ccc(F)cc1-c1c[nH]c2ncnc(N3CCOCC3)c12` [Example 94, 5-(5-fluoro-2-methoxyphenyl)-4-(morpholin-4-yl)-7H-pyrrolo[2,3-d]pyrimidine], the IC50 amounted to 7 nM in experiment [1] and 10 nM in experiment [2].
Consider `Clc1ccccc1-c1c[nH]c2ncnc(N3CCOCC3)c12` [Example 95, 5-(2-chlorophenyl)-4-(morpholin-4-yl)-7H-pyrrolo[2,3-d]pyrimidine], for which the values for the half-maximal inhibitory concentration (IC50) in experiment [1] and in experiment [2] were 21 nM and 33 nM, respectively.
On to `Cc1ccc(F)cc1-c1c[nH]c2ncnc(N3CCOCC3)c12` [Example 96, 5-(5-fluoro-2-methylphenyl)-4-(morpholin-4-yl)-7H-pyrrolo[2,3-d]pyrimidine], for which the half-inhibitory concentration (IC50) worked out at 91 nM in experiment [1] and 223 nM in experiment [2].
In the case of `COc1cccc(-c2c[nH]c3ncnc(N4CCOCC4)c23)c1` [Example 97, 5-(3-methoxyphenyl)-4-(morpholin-4-yl)-7H-pyrrolo[2,3-d]pyrimidine], the IC50 in experiment [1] is 28 nM; in experiment [2], 46 nM.
With `OCc1cc(-c2c[nH]c3ncnc(N4CCOCC4)c23)ccc1F` [Example 98, {2-fluoro-5-[4-(morpholin-4-yl)-7H-pyrrolo[2,3-d]pyrimidin-5-yl]phenyl}methanol], the IC50 in experiment [1] turned out to be 70 nM; in experiment [2], 135 nM.
For `Fc1ccc(-c2c[nH]c3ncnc(N4CCOCC4)c23)cc1` [Example 99, 5-(4-fluorophenyl)-4-(morpholin-4-yl)-7H-pyrrolo[2,3-d]pyrimidine], the IC50 in experiment [1] turned out to be 95 nM; in experiment [2], 154 nM.
On to `OCc1cccc(-c2c[nH]c3ncnc(N4CCOCC4)c23)c1` [Example 100, {3-[4-(morpholin-4-yl)-7H-pyrrolo[2,3-d]pyrimidin-5-yl]phenyl}methanol], for which the IC50 in experiment [1] worked out at 12 nM; in experiment [2], 19 nM.
In the case of `COc1ccccc1-c1c[nH]c2ncnc(N3CCOCC3)c12` [Example 101, 5-(2-methoxyphenyl)-4-(morpholin-4-yl)-7H-pyrrolo[2,3-d]pyrimidine], the half-maximal inhibitory concentration (IC50) in experiment [1] amounted to 14 nM; in experiment [2], 23 nM.
As for `CSc1cccc(-c2c[nH]c3ncnc(N4CCOCC4)c23)c1` [Example 102, 5-[3-(methylsulfanyl)phenyl]-4-(morpholin-4-yl)-7H-pyrrolo[2,3-d]pyrimidine], the IC50 in experiment [1] came out at 52 nM; in experiment [2], 78 nM.
As for `c1cncc(-c2c[nH]c3ncnc(N4CCOCC4)c23)c1` [Example 103, 4-(morpholin-4-yl)-5-(pyridin-3-yl)-7H-pyrrolo[2,3-d]pyrimidine], the values for the concentration for half-maximal inhibition (IC50) in experiment [1] and in experiment [2] were 35 nM and 159 nM, respectively.
In the case of `c1ccc2c(-c3c[nH]c4ncnc(N5CCOCC5)c34)cncc2c1` [Example 104, 4-[4-(morpholin-4-yl)-7H-pyrrolo[2,3-d]pyrimidin-5-yl]isoquinoline], the half-maximal inhibitory concentration (IC50) was 27 nM in experiment [1] and 51 nM in experiment [2].
Turning to `Brc1cncc(-c2c[nH]c3ncnc(N4CCOCC4)c23)c1` [Example 105, 5-(5-bromopyridin-3-yl)-4-(morpholin-4-yl)-7H-pyrrolo[2,3-d]pyrimidine], the results for the IC50 in experiment [1] and in experiment [2] were 6 nM and 14 nM, respectively.

The record behind these values is patent publication US9156845B2, “4-(substituted amino)-7H-pyrrolo[2,3-d] pyrimidines as LRRK2 inhibitors” (Pfizer Inc., priority 2012, dated 2015).
